Experimental data as given in patent US10538490B2, “Benzylaminopyridylcyclopropanecarboxylic acids, pharmaceutical compositions and uses thereof” (Boehringer Ingelheim International GmbH, priority 2016, dated 2020).
≈ marks a conversion by molar mass, not a printed value.

Tests used:
human GPR40 receptor = human GPR40 receptor (Homo sapiens, UniProt O14842); assay: IP1 accumulation measurements using the IPOne assay system; assay type: cell-based; conditions: 1321N1 cells stably expressing human GPR40 receptor, stimulation 1 h at 37° C.
human GPR40 receptor, sequence (O14842 whole entry): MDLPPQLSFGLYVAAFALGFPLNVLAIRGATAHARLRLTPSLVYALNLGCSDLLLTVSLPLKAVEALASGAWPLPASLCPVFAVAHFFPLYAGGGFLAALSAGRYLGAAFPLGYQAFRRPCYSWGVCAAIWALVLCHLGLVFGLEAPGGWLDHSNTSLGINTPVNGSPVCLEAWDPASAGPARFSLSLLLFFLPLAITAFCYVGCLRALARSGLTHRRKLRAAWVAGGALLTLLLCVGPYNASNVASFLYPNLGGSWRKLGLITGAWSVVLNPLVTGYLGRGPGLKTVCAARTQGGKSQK
Method: IP1 accumulation measurements using the IPOne assay system—1321N1 cells stably expressing human GPR40 receptor (Euroscreen, Belgium) are seeded 24 h before the assay in white 384-well plates in culture medium containing 10% FCS, 1% Na-Pyruvate and 400 μg/mL G418. IPi is assayed according to the manufacturer's description (Cisbio Bioassays, France). In brief, the assay is started by substitution of the culture medium by stimulation buffer (Hepes 10 mM, CaCl2 1 mM, MgCl2 0.5 mM, KCl 4.2 mM, NaCl 146 mM, glucose 5.5 mM and LiCl 50 mM, pH 7.4). Cells are stimulated for 1 h at 37° C., 5% CO2 by addition of the compounds that are diluted in stimulation buffer containing LiCl. Assays are stopped by adding HTRF-conjugates (IP1-d2 and Anti-IP1 cryptate Tb) and lysis buffer, provided by the manufacturer. After an incubation time of 1 h at room temperature plates are measured using an EnVision™, Perkin Elmer. The obtained fluorescence ratios at 665/615 […] are then used to calculate the pEC50 values using Assay Explorer 3.3 Software (Accelrys, Inc.) by interpolation using an IP1 reference curve and subsequent sigmoidal curve fitting allowing for a variable hill slope.

[1] = Aqueous solubility in buffer versus acetonitrile/water (1/1), LC-UV; assay type: physicochemical; conditions: kinetic from dmso stock, buffer pH 2.2, 24 h shaking, 2.5% DMSO, ">" if more than 90% dissolved
Method: The aqueous solubility of the compounds of the invention is determined by comparing the amount dissolved in buffer to the amount in an acetonitrile/water (1/1) solution. Starting from a 10 mM DMSO stock solution aliquots are diluted with acetonitrile/water (1/1) or buffer, respectively. After 24 h of shaking, the solutions are filtrated and analyzed by LC-UV. The amount dissolved in buffer is compared to the amount in the acetonitrile solution.
Solubility is usually being measured from 0.001 to 0.125 mg/mL at a DMSO concentration of 2.5%. If more than 90% of the compound is dissolved in buffer, the value is marked with “>”.

SMILES | EC50 (human GPR40 receptor) [nM] | solubility at 24 h [1] [µg/mL]
Cc1cc(OCCC(C)(C)O)cc(C)c1-c1ccc(F)c(CNc2ccc([C@H]3C[C@@H]3C(=O)O)cn2)c1 [Example 1] | 45 | 87 (≈ 177 µM)
Cc1cc(OCCC(C)(C)O)cc(C)c1-c1cc(CNc2ccc([C@H]3C[C@@H]3C(=O)O)cn2)c(F)cc1F [Example 2] | 42 | 83 (≈ 163 µM)
O=C(O)[C@H]1C[C@@H]1c1ccc(NCc2ccc(C(F)(F)F)c(-c3ccc(OCC4CC4)cc3)c2)nc1 [Example 7, (1S,2S)-2-{6-[(4′-Cyclopropylmethoxy-6-trifluoromethyl-biphenyl-3-ylmethyl)-amino]-pyridin-3-yl}-cyclopropanecarboxylic acid] | 34 | 30 (≈ 62.2 µM)
Cc1ccc(Cl)c(-c2ccc(F)c(CNc3ccc([C@H]4C[C@@H]4C(=O)O)cn3)c2)c1Cl [Example 25] | 41 | 83 (≈ 186 µM)
COc1cc(C)c(-c2ccc(F)c(CNc3ccc([C@H]4C[C@@H]4C(=O)O)cn3)c2)c(C)c1 [Example 26] | 79 | 91 (≈ 216 µM)
COc1cc(OC)c(-c2ccc(F)c(CNc3ccc([C@H]4C[C@@H]4C(=O)O)cn3)c2)c(OC)c1 [Example 30] | 877 | 112 (≈ 248 µM)
Cc1cc(C#N)cc(C)c1-c1ccc(F)c(CNc2ccc([C@H]3C[C@@H]3C(=O)O)cn2)c1 [Example 35] | 137 | 86 (≈ 207 µM)
Cc1cc(O[C@H]2CCOC2)cc(C)c1-c1ccc(F)c(CNc2ccc([C@H]3C[C@@H]3C(=O)O)cn2)c1 [Example 38] | 94 | 99 (≈ 208 µM)
Cc1cc(OC2CCOCC2)cc(C)c1-c1ccc(F)c(CNc2ccc([C@H]3C[C@@H]3C(=O)O)cn2)c1 [Example 42] | 100 | 87 (≈ 177 µM)
Cc1cc(-c2cc(=O)n(C)cn2)cc(C)c1-c1ccc(F)c(CNc2ccc([C@H]3C[C@@H]3C(=O)O)cn2)c1 [Example 43] | 54 | 107 (≈ 215 µM)
Cc1cnc(-c2cc(C)c(-c3ccc(F)c(CNc4ccc([C@H]5C[C@@H]5C(=O)O)cn4)c3)c(C)c2)nc1 [Example 53] | 15 | 78 (≈ 162 µM)
Cc1cc(OCC2(O)CCOCC2)cc(C)c1-c1ccc(F)c(CNc2ccc([C@H]3C[C@@H]3C(=O)O)cn2)c1 [Example 55] | 220 | 122 (≈ 234 µM)
Cc1cccc(C)c1-c1cc(CNc2ccc([C@H]3C[C@@H]3C(=O)O)cn2)c(F)cc1F [Example 61] | 36 | 42 (≈ 103 µM)
Cc1ccc(Cl)c(-c2cc(CNc3ccc([C@H]4C[C@@H]4C(=O)O)cn3)c(F)cc2F)c1Cl [Example 67] | 31 | 84 (≈ 181 µM)
COc1cc(C)c(-c2cc(CNc3ccc([C@H]4C[C@@H]4C(=O)O)cn3)c(F)cc2F)c(C)c1 [Example 68] | 59 | > 120
O=C(O)[C@H]1C[C@@H]1c1ccc(NCc2cc(-c3c(Cl)cccc3Cl)c(F)cc2F)nc1 [Example 73] | 40 | 
N#CC1(c2ccccc2-c2cc(CNc3ccc([C@H]4C[C@@H]4C(=O)O)cn3)c(F)cc2F)CC1 [Example 74] | 1340 | 
COc1cc(OC)c(Cl)c(-c2cc(CNc3ccc([C@H]4C[C@@H]4C(=O)O)cn3)c(F)cc2F)c1Cl [Example 75] | 50 | 
Cc1cc(C(N)=O)cc(C)c1-c1cc(CNc2ccc([C@H]3C[C@@H]3C(=O)O)cn2)c(F)cc1F [Example 76] | 340 | 
Cc1cc(C#N)cc(C)c1-c1cc(CNc2ccc([C@H]3C[C@@H]3C(=O)O)cn2)c(F)cc1F [Example 77] | 83 | 97 (≈ 224 µM)
Cc1cc(OCC2CCOC2)cc(C)c1-c1cc(CNc2ccc([C@H]3C[C@@H]3C(=O)O)cn2)c(F)cc1F (stereo partly shown) [Example 78] | 5 | 
Cc1cc(O[C@H]2CCOC2)cc(C)c1-c1cc(CNc2ccc([C@H]3C[C@@H]3C(=O)O)cn2)c(F)cc1F [Example 79] | 42 | 

Continued, values first:

EC50 (human GPR40 receptor) [nM] | solubility at 24 h [1] [µg/mL] | SMILES
59 | 106 (≈ 214 µM) | Cc1cc(O[C@@H]2CCOC2)cc(C)c1-c1cc(CNc2ccc([C@H]3C[C@@H]3C(=O)O)cn2)c(F)cc1F [Example 80]
491 |  | O=C(O)[C@H]1C[C@@H]1c1ccc(NCc2cc(-c3c(F)cc(F)cc3F)c(F)cc2F)nc1 [Example 81]
236 |  | Cc1cc(CO)cc(C)c1-c1cc(CNc2ccc([C@H]3C[C@@H]3C(=O)O)cn2)c(F)cc1F [Example 82]
104 |  | Cc1cc(OCC(C)(C)O)cc(C)c1-c1cc(CNc2ccc([C@H]3C[C@@H]3C(=O)O)cn2)c(F)cc1F [Example 83]
57 |  | Cc1cc(OC2CCOCC2)cc(C)c1-c1cc(CNc2ccc([C@H]3C[C@@H]3C(=O)O)cn2)c(F)cc1F [Example 84]
25 |  | Cc1cc(-c2cc(=O)n(C)cn2)cc(C)c1-c1cc(CNc2ccc([C@H]3C[C@@H]3C(=O)O)cn2)c(F)cc1F [Example 85]
29 |  | Cc1cc(-c2ccn(C)c(=O)c2)cc(C)c1-c1cc(CNc2ccc([C@H]3C[C@@H]3C(=O)O)cn2)c(F)cc1F [Example 86]
89 |  | Cc1cc(OCC2(C)COC2)cc(C)c1-c1cc(CNc2ccc([C@H]3C[C@@H]3C(=O)O)cn2)c(F)cc1F [Example 87]
81 |  | Cc1cc(OCC(C)(C)C#N)cc(C)c1-c1cc(CNc2ccc([C@H]3C[C@@H]3C(=O)O)cn2)c(F)cc1F [Example 88]
65 |  | Cc1cc(OCc2ccccc2)cc(C)c1-c1cc(CNc2ccc([C@H]3C[C@@H]3C(=O)O)cn2)c(F)cc1F [Example 89]
8 | 89 (≈ 181 µM) | Cc1cc(-c2nnn(C)n2)cc(C)c1-c1cc(CNc2ccc([C@H]3C[C@@H]3C(=O)O)cn2)c(F)cc1F [Example 90]
43 |  | Cc1cc(-c2ccn(C)c(=O)n2)cc(C)c1-c1cc(CNc2ccc([C@H]3C[C@@H]3C(=O)O)cn2)c(F)cc1F [Example 91]
16 | 103 (≈ 211 µM) | Cc1cc(-c2ccnn2C)cc(C)c1-c1cc(CNc2ccc([C@H]3C[C@@H]3C(=O)O)cn2)c(F)cc1F [Example 92]
72 | 82 (≈ 188 µM) | CCc1cccc(CC)c1-c1cc(CNc2ccc([C@H]3C[C@@H]3C(=O)O)cn2)c(F)cc1F [Example 93]
1320 |  | COc1cc(OC)c(F)c(-c2cc(CNc3ccc([C@H]4C[C@@H]4C(=O)O)cn3)c(F)cc2F)c1F [Example 94]
11 | 88 (≈ 176 µM) | Cc1cnc(-c2cc(C)c(-c3cc(CNc4ccc([C@H]5C[C@@H]5C(=O)O)cn4)c(F)cc3F)c(C)c2)nc1 [Example 95]
114 |  | CC(C)c1ccccc1-c1cc(CNc2ccc([C@H]3C[C@@H]3C(=O)O)cn2)c(F)cc1F [Example 96]
189 | 123 (≈ 228 µM) | Cc1cc(OCC2(O)CCOCC2)cc(C)c1-c1cc(CNc2ccc([C@H]3C[C@@H]3C(=O)O)cn2)c(F)cc1F [Example 97]
102 |  | Cc1cc(OCC2(O)CCSCC2)cc(C)c1-c1cc(CNc2ccc([C@H]3C[C@@H]3C(=O)O)cn2)c(F)cc1F [Example 98]
8 | 97 (≈ 188 µM) | COc1cc(-c2cc(C)c(-c3cc(CNc4ccc([C@H]5C[C@@H]5C(=O)O)cn4)c(F)cc3F)c(C)c2)ccn1 [Example 99]
101 |  | Cc1cc(OCC2(O)CCS(=O)(=O)CC2)cc(C)c1-c1cc(CNc2ccc([C@H]3C[C@@H]3C(=O)O)cn2)c(F)cc1F [Example 100]
39 |  | Cc1cc(OCC2CCOCC2)cc(C)c1-c1cc(CNc2ccc([C@H]3C[C@@H]3C(=O)O)cn2)c(F)cc1F [Example 101]
420 |  | CNC(=O)c1cc(C)c(-c2cc(CNc3ccc([C@H]4C[C@@H]4C(=O)O)cn3)c(F)cc2F)c(C)c1 [Example 102]
462 |  | Cc1cc(C(=O)N(C)C)cc(C)c1-c1cc(CNc2ccc([C@H]3C[C@@H]3C(=O)O)cn2)c(F)cc1F [Example 103]
 | < 1 | Cc1cc(-c2nnn(C)n2)cc(C)c1-c1ccc(F)c2c1CC[C@H]2Oc1ccc([C@H]2C[C@@H]2C(=O)O)cc1 [WO 2013/178575 Example 45, reference compound]
